Laboratory results from publication PMC3158827 (ACS chemical biology, 2011).
Non-standard residues stand in square brackets, D forms with d. No end group written: not given here.

Key:
plasma kallikrein = settings: cited from earlier work
chymotrypsin = assay: chymotrypsin; settings: 37°C, up to 120 minutes
thrombin [1] = settings: cited from earlier work
thrombin [2] = settings: cited from earlier work; remark: listed apart in the source
trypsin = settings: cited from earlier work

Substance: Ecallantide
- Ki (plasma kallikrein): 0.044 nM

Substance: GGSCIDGGRLMCGGS
- cleaved bond (chymotrypsin): methionine-C

Substance: [dF]PRP
- thrombin inhibition (thrombin [1]; concentrations up to 10 µM): does not significantly inhibit thrombin

Substance: bivalirudin
- association rate constant (thrombin [2]): 4e+08 M⁻¹ s⁻¹
- dissociation rate (thrombin [2]): 0.8 s⁻¹
- Ki (thrombin [1]): 2 nM

Substance: ω-conotoxin MVIIa
- degradation by trypsin (trypsin): degraded
